Measured values as given in patent US7812183B2, “Benzopyran derivatives as potassium channel openers” (Janssen Pharmaceutica NV, priority 2005, dated 2010).

Biological target: T1, KATP channels (Homo sapiens, UniProt O60706+Q14654)
T1 construct: TE671 human medulloblastoma cells were obtained from ATCC; host or cells: TE671 human medulloblastoma cells
Assay: Potassium Channel Assay (FLIPR membrane potential, TE671 cells)
Type: cell-based
Settings: TE671 human medulloblastoma cells, Membrane Potential Assay Dye, room temperature, hyperpolarization from KATP channel opening
Protocol: TE671 human medulloblastoma cells were obtained from ATCC and grown in Dulbecco's modified Eagle's medium (DMEM) supplemented with 10% fetal bovine serum, 100 U/ml penicillin and 100 U/ml streptomycine.
The day before testing, the cells were plated in black 96-well plates at 50K/well. On the day of testing, the growth media was removed, then 100 μl of FLIPR buffer (20 mM HEPES, 120 mM NaCl, 2 mM KCl, 2 mM CaCl2, 1 mM MgCl2, 5 mM Glucose) and 100 μl of Membrane Potential Assay Dye (Molecular Devices) dissolved in FLIPR buffer were added to each well. The cells were incubated at room temperature for 15 to 30 min.
The effect of test compounds on KATP channels were evaluated on a fluorometric imaging plate reader (FLIPR, Molecular Devices) at room temperature. After a baseline period, 50 μl of 5× stock solution of test compound prepared in FLIPR buffer was added and fluorescent change was monitored for 3 minutes. After this reading, glyburide, a KATP channel blocker, was added to a final concentration of 5 μM to check the specificity of the test compound as a KATP channel openers. Hyperpolarization resulting from KATP channel opening was observed as a decrease in fluorescent intensity.
Representative compounds of the present invention were tested according to the procedure described above, with results as listed in Table 7, below.

T1 sequence (O60706 1-1549 isoform O60706-2): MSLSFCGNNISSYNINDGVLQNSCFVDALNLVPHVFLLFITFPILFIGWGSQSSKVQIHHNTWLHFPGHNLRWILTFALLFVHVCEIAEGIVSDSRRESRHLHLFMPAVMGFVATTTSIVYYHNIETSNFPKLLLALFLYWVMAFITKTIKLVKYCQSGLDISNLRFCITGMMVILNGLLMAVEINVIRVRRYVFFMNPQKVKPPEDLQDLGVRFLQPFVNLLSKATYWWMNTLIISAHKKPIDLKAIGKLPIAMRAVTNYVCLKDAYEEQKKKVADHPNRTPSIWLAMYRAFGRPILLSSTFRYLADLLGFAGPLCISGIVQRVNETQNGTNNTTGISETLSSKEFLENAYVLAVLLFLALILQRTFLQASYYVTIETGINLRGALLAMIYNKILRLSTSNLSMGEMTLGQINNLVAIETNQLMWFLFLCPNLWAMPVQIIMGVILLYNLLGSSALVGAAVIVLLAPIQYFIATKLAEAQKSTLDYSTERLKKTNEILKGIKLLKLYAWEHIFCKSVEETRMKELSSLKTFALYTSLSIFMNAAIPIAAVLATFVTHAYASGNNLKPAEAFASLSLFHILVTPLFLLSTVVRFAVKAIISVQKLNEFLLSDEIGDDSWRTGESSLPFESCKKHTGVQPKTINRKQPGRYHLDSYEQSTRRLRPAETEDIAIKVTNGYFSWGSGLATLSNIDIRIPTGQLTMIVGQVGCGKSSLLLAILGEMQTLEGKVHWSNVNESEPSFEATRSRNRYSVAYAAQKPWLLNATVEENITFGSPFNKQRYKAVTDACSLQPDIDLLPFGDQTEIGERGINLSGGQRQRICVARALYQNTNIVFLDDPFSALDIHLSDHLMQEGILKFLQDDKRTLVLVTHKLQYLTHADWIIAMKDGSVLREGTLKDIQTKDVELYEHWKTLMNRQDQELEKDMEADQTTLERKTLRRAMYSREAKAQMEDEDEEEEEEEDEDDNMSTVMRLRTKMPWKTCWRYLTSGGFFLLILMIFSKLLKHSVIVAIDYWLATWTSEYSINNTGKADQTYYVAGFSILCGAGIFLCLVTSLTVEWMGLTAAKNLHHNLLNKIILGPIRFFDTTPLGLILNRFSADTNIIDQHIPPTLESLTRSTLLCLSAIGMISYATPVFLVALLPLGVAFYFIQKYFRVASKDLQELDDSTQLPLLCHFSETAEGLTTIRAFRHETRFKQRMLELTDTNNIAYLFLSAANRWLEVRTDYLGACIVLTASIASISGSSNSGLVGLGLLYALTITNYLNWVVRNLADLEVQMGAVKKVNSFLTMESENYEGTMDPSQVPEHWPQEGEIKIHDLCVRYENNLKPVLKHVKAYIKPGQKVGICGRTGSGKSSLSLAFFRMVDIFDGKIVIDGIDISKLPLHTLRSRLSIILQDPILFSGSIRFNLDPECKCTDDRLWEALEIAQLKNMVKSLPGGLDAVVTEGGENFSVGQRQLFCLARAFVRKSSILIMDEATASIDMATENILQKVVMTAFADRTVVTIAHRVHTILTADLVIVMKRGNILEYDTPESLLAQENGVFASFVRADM
T1 sequence (Q14654 whole entry): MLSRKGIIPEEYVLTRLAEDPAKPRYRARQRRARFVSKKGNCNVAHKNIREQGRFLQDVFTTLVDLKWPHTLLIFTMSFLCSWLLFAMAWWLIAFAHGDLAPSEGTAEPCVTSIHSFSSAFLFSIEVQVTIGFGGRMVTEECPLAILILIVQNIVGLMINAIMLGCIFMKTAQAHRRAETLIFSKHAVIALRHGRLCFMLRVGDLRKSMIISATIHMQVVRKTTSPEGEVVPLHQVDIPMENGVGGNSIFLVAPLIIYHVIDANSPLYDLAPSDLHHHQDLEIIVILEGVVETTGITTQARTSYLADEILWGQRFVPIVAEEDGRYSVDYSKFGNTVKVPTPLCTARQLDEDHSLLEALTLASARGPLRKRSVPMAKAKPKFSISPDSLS

| EC50 | SMILES |
| --- | --- |
| 7.99 µM | CC1(C)Oc2ccc(S(=O)(=O)c3ccc(Cl)cc3)cc2[C@@H](n2oc3cc(Cl)ccc3c2=O)[C@@H]1O [Compound 102, 6-Chloro-2-[6-(4-chloro-benzenesulfonyl)-3S-hydroxy-2,2-dimethyl-chroman-4-yl]-R-benzo[d]isoxazol-3-one] |
| 7.77 µM | CC1(C)Oc2ccc(S(=O)(=O)c3cccc(F)c3)cc2[C@@H](Nc2noc3ccc(Cl)cc23)[C@@H]1O [Compound 103, 4R-(5-Chloro-benzo[d]isoxazol-3-ylamino)-6-(3-fluoro-benzenesulfonyl)-2,2-dimethyl-chroman-3S-ol] |
| 9.91 µM | CC1(C)C=C(Oc2ccc(-c3ccccc3)nn2)c2cc(C#N)ccc2O1 [Compound 53, 2,2-Dimethyl-4-(6-phenyl-pyridazin-3-yloxy)-2H-chromene-6-carbonitrile] |
| 6.34 µM | CC1(C)Oc2ccc(C#N)cc2[C@@H](N2CCN(c3ccc(F)cc3)CC2)[C@@H]1O (racemic) [Compound 48, 4-[4-(4-Fluoro-phenyl)-piperazin-1-yl]-3-hydroxy-2,2-dimethyl-chroman-6-carbonitrile] |
| 6.04 µM | CC1(C)Oc2ccc(C#N)cc2[C@@H](N2C(=O)c3ccncc3C2=O)[C@@H]1O [Compound 26, 4R-(1,3-Dioxo-1,3-dihydro-pyrrolo[3,4-c]pyridin-2-yl)-3S-hydroxy-2,2-dimethyl-chroman-6-carbonitrile] |
| 13.6 µM | CCN(CC)S(=O)(=O)c1ccc2c(c1)[C@@H](Nc1noc3cc(Cl)ccc13)[C@H](O)C(C)(C)O2 [Compound 81, 4R-(6-Chloro-benzo[d]isoxazol-3-ylamino)-3S-hydroxy-2,2-dimethyl-chroman-6-sulfonic acid diethylamide] |
| > 30 µM | CC1(C)Oc2ccc(C#N)cc2[C@@H](S(=O)(=O)c2ncc[nH]2)C1O (stereo in doubt) [Compound 71, (3S,4R)-3-Hydroxy-4-(1H-imidazole-2-sulfonyl)-2,2-dimethyl-chroman-6-carbonitrile] |
| 1.08 µM | CC1(C)Oc2ccc(S(=O)(=O)N3CCCCC3)cc2[C@@H](n2oc3cc(Cl)ccc3c2=O)[C@@H]1O [Compound 84, 6-Chloro-2-[3S-hydroxy-2,2-dimethyl-6-(piperidine-1-sulfonyl)-chroman-4-yl]-R-benzo[d]isoxazol-3-one] |
| > 30 µM | COc1ccc(S(=O)(=O)c2ccc3c(c2)[C@@H](Oc2noc4cc(Cl)ccc24)[C@H](O)C(C)(C)O3)cc1 [Compound 97, 4R-(6-Chloro-benzo[d]isoxazol-3-yloxy)-6-(4-methoxy-benzenesulfonyl)-2,2-dimethyl-chroman-3S-ol] |
| 29.8 µM | CC1(C)Oc2ccncc2[C@@H](n2nc(-c3ccc(Cl)cc3)ccc2=O)[C@@H]1O (racemic) [Compound 112, 6-(4-Chloro-phenyl)-2-(3-hydroxy-2,2-dimethyl-3,4-dihydro-2H-pyrano[3,2-c]pyridin-4-yl)-2H-pyridazin-3-one] |
| 8.82 µM | CC1(C)Oc2ccc(C#N)cc2[C@@H](Oc2ccn(-c3ccc(Cl)cc3)n2)[C@@H]1O (racemic) [Compound 55, 4-[1-(4-Chloro-phenyl)-1H-pyrazol-3-yloxy]-3-hydroxy-2,2-dimethyl-chroman-6-carbonitrile] |
| > 30 µM | Cc1cn([C@@H]2c3cc(C#N)ccc3OC(C)(C)[C@H]2O)c(-c2ccccc2)n1 (racemic) [Compound 9, 3-Hydroxy-2,2-dimethyl-4-(4-methyl-2-phenyl-imidazol-1-yl)-chroman-6-carbonitrile] |
| 12.3 µM | COc1ccc2onc(O[C@@H]3c4cc(C#N)ccc4OC(C)(C)[C@H]3O)c2c1 [Compound 44, (3S,4R)-3-Hydroxy-4-(5-methoxy-benzo[d]isoxazol-3-yloxy)-2,2-dimethyl-chroman-6-carbonitrile] |
| 5.93 µM | CC1(C)Oc2ccc(C#N)cc2[C@@H](n2c(=O)ccn2-c2ccc(Cl)cc2)[C@@H]1O (racemic) [Compound 15, 4-[2-(4-Chloro-phenyl)-5-oxo-2,5-dihydro-pyrazol-1-yl]-3-hydroxy-2,2-dimethyl-chroman-6-carbonitrile] |
| 16.5 µM | CC1(C)Oc2ccc(C#N)cc2[C@@H](Nc2nc3cc(Cl)ccc3o2)[C@@H]1O (racemic) [Compound 2, 4-(5-Chloro-benzooxazol-2-ylamino)-3-hydroxy-2,2-dimethyl-chroman-6-carbonitrile] |
| > 30 µM | CC1(C)Oc2ccc(S(=O)(=O)c3ccccc3)cc2[C@@H](Nc2noc3c(Cl)cccc23)[C@@H]1O [Compound 87, (3S,4R)-6-Benzenesulfonyl-4R-(7-chloro-benzo[d]isoxazol-3-ylamino)-2,2-dimethyl-chroman-3S-ol] |

| EC50 | SMILES |
| --- | --- |
| 21.4 µM | CC1(C)Oc2ccc(C#N)cc2[C@@H](N2CC3(CCCCC3)CC2=O)[C@@H]1O [Compound 34, 3S-Hydroxy-2,2-dimethyl-4R-(3-oxo-2-aza-spiro[4.5]dec-2-yl)-chroman-6-carbonitrile] |
| > 30 µM | CCN(CC)C(=O)c1ccc2c(c1)[C@@H](Nc1noc3ccc(Cl)cc13)[C@H](O)C(C)(C)O2 [Compound 89, 4R-(5-Chloro-benzo[d]isoxazol-3-ylamino)-3S-hydroxy-2,2-dimethyl-chroman-6-carboxylic acid diethylamide] |
| 25.7 µM | COc1ccc(S(=O)(=O)c2ccc3c(c2)[C@@H](Nc2noc4ccc(Cl)cc24)[C@H](O)C(C)(C)O3)cc1 [Compound 104, 4R-(5-Chloro-benzo[d]isoxazol-3-ylamino)-6-(4-methoxy-benzenesulfonyl)-2,2-dimethyl-chroman-3S-ol] |
| > 30 µM | CCN(CC)C(=O)c1ccc2c(c1)[C@@H](Oc1noc3cc(Cl)ccc13)[C@H](O)C(C)(C)O2 [Compound 90, 4R-(6-Chloro-benzo[d]isoxazol-3-yloxy)-3S-hydroxy-2,2-dimethyl-chroman-6-carboxylic acid diethylamide] |
| 20.5 µM | CC1(C)Oc2cc(Cl)c(Cl)cc2[C@@H](Oc2noc3cc(Cl)ccc23)[C@@H]1O [Compound 93, 6,7-Dichloro-4R-(6-chloro-benzo[d]isoxazol-3-yloxy)-2,2-dimethyl-chroman-3S-ol] |
| 3.45 µM | CC1(C)Oc2ccc(C#N)cc2[C@@H](SC2=NCCO2)[C@@H]1O (stereo in doubt) [Compound 68, 4-(4,5-Dihydro-oxazol-2-ylsulfanyl)-3-hydroxy-2,2-dimethyl-chroman-6-carbonitrile] |
| 4.33 µM | CC1(C)Oc2ccncc2[C@@H](n2nccc2-c2ccc(Cl)cc2)[C@@H]1O (racemic) [Compound 108, 4-[5-(4-Chloro-phenyl)-pyrazol-1-yl]-2,2-dimethyl-3,4-dihydro-2H-pyrano[3,2-c]pyridin-3-ol] |
| > 30 µM | CC1(C)Oc2ccc(C#N)cc2[C@@H](N2CCN(c3ccc(Cl)cc3)CC2)[C@@H]1O (racemic) [Compound 50, 4-[4-(4-Chloro-phenyl)-piperazin-1-yl]-3-hydroxy-2,2-dimethyl-chroman-6-carbonitrile] |
| 0.61 µM | CC1(C)Oc2ccc(C#N)cc2[C@@H](Nc2noc3ccc(Cl)cc23)[C@@H]1O [Compound 39, (3S,4R)-4-(5-Chloro-benzo[d]isoxazol-3-ylamino)-3-hydroxy-2,2-dimethyl-chroman-6-carbonitrile] |
| > 30 µM | CC1(C)Oc2ccc(C#N)cc2[C@@H](N2CCN(c3ccc([N+](=O)[O-])cc3)CC2)[C@@H]1O (racemic) [Compound 51, 3-Hydroxy-2,2-dimethyl-4-[4-(4-nitro-phenyl)-piperazin-1-yl]-chroman-6-carbonitrile] |
| 3.16 µM | CC1(C)Oc2ccc(Cl)cc2[C@@H](N2C(=O)CCN2c2ccccc2)[C@@H]1O (racemic) [Compound 13, 2-(6-Chloro-3-hydroxy-2,2-dimethyl-chroman-4-yl)-1-phenyl-pyrazolidin-3-one] |
| 6.77 µM | CC1(C)Oc2ccc(C#N)cc2[C@@H](S(=O)(=O)c2nc3cc(Cl)ccc3o2)[C@@H]1O (racemic) [Compound 17, 4-(5-Chloro-benzooxazole-2-sulfonyl)-3-hydroxy-2,2-dimethyl-chroman-6-carbonitrile] |
| > 30 µM | CC1(C)Oc2ccc(C#N)cc2[C@@H](OP(=O)(c2ccccc2)c2ccccc2)[C@@H]1O [Compound 27] |
| 13.5 µM | CC1(C)Oc2ccc(C#N)cc2[C@@H](n2c(=O)ccn2-c2ccccc2)[C@@H]1O (racemic) [Compound 62, 3-Hydroxy-2,2-dimethyl-4-(5-oxo-2-phenyl-2,5-dihydro-pyrazol-1-yl)-chroman-6-carbonitrile] |
| 3.16 µM | CC1(C)Oc2ccc(C#N)cc2[C@@H](N2C(=O)c3ccc(Cl)cc3C2=O)[C@@H]1O [Compound 115, 4-(5-Chloro-1,3-dioxo-1,3-dihydro-isoindol-2-yl)-3-hydroxy-2,2-dimethyl-chroman-6-carbonitrile] |
| > 30 µM | CC1(C)Oc2ccc(C#N)cc2[C@@H](Sc2nc3cc(OC(F)F)ccc3[nH]2)[C@@H]1O (racemic) [Compound 16, 4-(5-Difluoromethoxy-1H-benzoimidazol-2-ylsulfanyl)-3-hydroxy-2,2-dimethyl-chroman-6-carbonitrile] |

| SMILES | EC50 |
| --- | --- |
| CC1(C)Oc2ccc(C#N)cc2[C@@H](NP(=O)(c2ccccc2)c2ccccc2)[C@@H]1O [Compound 65] | > 30 µM |
